This is an account of results in the Biogen ADME set (Fang et al. 2023).

The conditions of the data set: for aqueous solubility: pH 6.8.

≈ marks a conversion by molar mass, not a printed value. A value given as a limit tells only on which side of the number the result lay.

The aqueous solubility is how much of the substance goes into solution per volume. High values mean a readily soluble substance, low ones a poorly soluble substance. As to `Cc1nc(O)c2c(n1)CN(Cc1ccccc1)CC2`, the MDR1-MDCK efflux ratio amounted to 9.79; the intrinsic clearance, human liver microsomes is at most 4.74 mL/min/kg; the intrinsic clearance, rat liver microsomes was at most 10.7 mL/min/kg; the aqueous solubility was found to be 42.7 µg/mL (≈ 167 µM).
In the case of `O=C(Nc1cc(Cl)ccc1Cl)c1cccc(N2CCCC2=O)c1`, the intrinsic clearance, human liver microsomes was 156 mL/min/kg; the intrinsic clearance, rat liver microsomes came to 969 mL/min/kg; the aqueous solubility came to 34.8 µg/mL (≈ 99.7 µM).
As for `CCn1nc(CNC(=O)c2nc(C)c[nH]2)c2ccccc21`, the MDR1-MDCK efflux ratio came out at 5.37; the intrinsic clearance, human liver microsomes was determined as 11.2 mL/min/kg; the intrinsic clearance, rat liver microsomes came to 236 mL/min/kg.
On to `Cc1cc(C(=O)N(C)Cc2ccccc2C)[nH]n1`, for which the intrinsic clearance, human liver microsomes is at most 4.74 mL/min/kg and the intrinsic clearance, rat liver microsomes is 239 mL/min/kg.
In the case of `Cc1ccc(C(=O)N(C)Cc2c(C)noc2C)cn1`, the MDR1-MDCK efflux ratio was 1.35; the intrinsic clearance, human liver microsomes is at most 4.74 mL/min/kg; the intrinsic clearance, rat liver microsomes is at most 10.7 mL/min/kg; the aqueous solubility stood at 40.8 µg/mL (≈ 157 µM).
For `Cc1nc2cc(NC(=O)Cc3c(C)nc4ccccc4c3C)ccc2o1`, the MDR1-MDCK efflux ratio is 4.57; the intrinsic clearance, human liver microsomes was determined as 8.56 mL/min/kg; the intrinsic clearance, rat liver microsomes was found to be 254 mL/min/kg; the aqueous solubility was 23.1 µg/mL (≈ 66.9 µM).
In the case of `CN(C)C(C)(C)CNc1ncnc2ccccc12`, the MDR1-MDCK efflux ratio came to 2.86; the intrinsic clearance, human liver microsomes is at most 4.74 mL/min/kg; the intrinsic clearance, rat liver microsomes is 293 mL/min/kg; the aqueous solubility amounted to 39.1 µg/mL (≈ 160 µM).
Take `Cc1ccc(-c2cnc3ccccc3n2)cc1N`: the intrinsic clearance, human liver microsomes was 256 mL/min/kg and the intrinsic clearance, rat liver microsomes came to 203 mL/min/kg.
For `Cc1cc(OCc2ccnc(Cl)c2)nnc1C` the same measures were at most 4.74 mL/min/kg and 51.6 mL/min/kg.
As for `Brc1cc2c(cc1Cn1cncn1)OCCCO2`, the MDR1-MDCK efflux ratio came out at 0.566; the intrinsic clearance, human liver microsomes is 7.7 mL/min/kg; the intrinsic clearance, rat liver microsomes is 228 mL/min/kg; the aqueous solubility came to 34.4 µg/mL (≈ 111 µM).
Regarding `Cc1nc(N2CCN(C)CC2)nc(C)c1NC(=O)C1CCCCC1`, the MDR1-MDCK efflux ratio came out at 3.54; the intrinsic clearance, human liver microsomes is at most 4.74 mL/min/kg; the intrinsic clearance, rat liver microsomes was at most 10.7 mL/min/kg; the aqueous solubility stood at 60 µg/mL (≈ 181 µM).
Turning to `N#Cc1cccc(-c2ccc(=O)n3c2[C@@H]2C[C@@H](CN(Cc4cccs4)C2)C3)c1`, the MDR1-MDCK efflux ratio was 7.04; the intrinsic clearance, human liver microsomes stood at 396 mL/min/kg; the intrinsic clearance, rat liver microsomes was 2000 mL/min/kg; the aqueous solubility came out at 48.9 µg/mL (≈ 126 µM).
As for `O=C(NCC1(Sc2ccccc2)CC1)c1ccc(=O)[nH]n1`, the intrinsic clearance, human liver microsomes turned out to be 7.88 mL/min/kg and the intrinsic clearance, rat liver microsomes came out at 567 mL/min/kg.
For the molecule `O=C(CCc1ccccc1)N1CCC(c2cccc(Cc3ccc(F)cc3)n2)CC1`, the MDR1-MDCK efflux ratio is 0.727; the intrinsic clearance, human liver microsomes amounted to 1000 mL/min/kg; the intrinsic clearance, rat liver microsomes was 4270 mL/min/kg; the aqueous solubility came out at 4.5 µg/mL (≈ 11.2 µM).
On to `CCc1nc(CC)n(Cc2nc(C)cs2)n1`, for which the MDR1-MDCK efflux ratio was determined as 0.797; the intrinsic clearance, human liver microsomes is at most 4.74 mL/min/kg; the intrinsic clearance, rat liver microsomes is 39.8 mL/min/kg; the aqueous solubility is 35.9 µg/mL (≈ 152 µM).
For the molecule `c1ccc2c(c1)CCN(Cc1nnc3n1CCC3)C2`, the MDR1-MDCK efflux ratio amounted to 6.91; the intrinsic clearance, human liver microsomes was at most 4.74 mL/min/kg; the intrinsic clearance, rat liver microsomes came out at 34.5 mL/min/kg; the aqueous solubility turned out to be 35.3 µg/mL (≈ 139 µM).
Turning to `Cc1cc(OCC(=O)N(C)C2CCCCCCC2)no1`, the MDR1-MDCK efflux ratio was determined as 0.765; the intrinsic clearance, human liver microsomes amounted to 56.6 mL/min/kg; the intrinsic clearance, rat liver microsomes is 2210 mL/min/kg; the aqueous solubility worked out at 43.9 µg/mL (≈ 156 µM).
Consider `CCCn1cnnc1CN(C)Cc1cc(C(C)C)on1`, for which the MDR1-MDCK efflux ratio was 15.3; the intrinsic clearance, human liver microsomes is at most 4.74 mL/min/kg; the intrinsic clearance, rat liver microsomes came to 534 mL/min/kg.
`Cc1cnc(Nc2ccc(OCCN3CCCC3)cc2)nc1Nc1cccc(S(=O)(=O)NC(C)(C)C)c1`: the intrinsic clearance, human liver microsomes worked out at 34.1 mL/min/kg and the intrinsic clearance, rat liver microsomes is 209 mL/min/kg.
Regarding `CONC(=O)c1cn(-c2ccc(Br)cc2)cn1`, the intrinsic clearance, human liver microsomes was at most 4.74 mL/min/kg; the intrinsic clearance, rat liver microsomes was 463 mL/min/kg; the aqueous solubility came to 63.6 µg/mL (≈ 215 µM).
As for `CC(C)CCNC(=O)c1ccc2ccccc2n1`, the intrinsic clearance, human liver microsomes turned out to be 168 mL/min/kg; the intrinsic clearance, rat liver microsomes was found to be 640 mL/min/kg; the aqueous solubility stood at 7.28 µg/mL (≈ 30 µM).
For the molecule `O=C(NCc1cnn2cccnc12)c1ccccc1-n1cnnc1`, the MDR1-MDCK efflux ratio worked out at 4.87; the intrinsic clearance, human liver microsomes is at most 4.74 mL/min/kg; the intrinsic clearance, rat liver microsomes is at most 10.7 mL/min/kg.
As for `O=C(c1cc2ccccc2[nH]1)N1C[C@@H](O)[C@H](N2CCOCC2)C1`, the MDR1-MDCK efflux ratio came to 0.428; the intrinsic clearance, human liver microsomes was at most 4.74 mL/min/kg; the intrinsic clearance, rat liver microsomes is 17.6 mL/min/kg; the aqueous solubility was found to be 45.6 µg/mL (≈ 145 µM).
`Cc1ccc(C#N)c(NCc2ccccc2-n2ccnc2)n1`: the MDR1-MDCK efflux ratio worked out at 1.76; the intrinsic clearance, human liver microsomes worked out at 45.7 mL/min/kg; the intrinsic clearance, rat liver microsomes was 621 mL/min/kg.
With `O=C(C1CC1)N1CCC(CNS(=O)(=O)N2CCCCCC2)CC1`, the MDR1-MDCK efflux ratio was 15.2; the intrinsic clearance, human liver microsomes was 40.4 mL/min/kg; the intrinsic clearance, rat liver microsomes turned out to be 1320 mL/min/kg.
Turning to `CCCc1noc(CN2CCN(c3ccccc3OC)CC2)n1`, the MDR1-MDCK efflux ratio was determined as 0.743; the intrinsic clearance, human liver microsomes is 27 mL/min/kg; the intrinsic clearance, rat liver microsomes was found to be 351 mL/min/kg.
Molecule `O=C(Nc1cccc2ncccc12)[C@H]1CCCN(S(=O)(=O)c2cccs2)C1` gave an intrinsic clearance, human liver microsomes of 35.8 mL/min/kg and an intrinsic clearance, rat liver microsomes of 614 mL/min/kg.
As for `CCc1ccccc1NC(=O)c1cc(C)nc2onc(C)c12`, the MDR1-MDCK efflux ratio stood at 0.67; the intrinsic clearance, human liver microsomes was 51.8 mL/min/kg; the intrinsic clearance, rat liver microsomes was found to be 53.1 mL/min/kg; the aqueous solubility was found to be 13.3 µg/mL (≈ 45 µM).
On to `Cc1cccc(NC2CCN(Cc3ccncc3)CC2)n1`, for which the MDR1-MDCK efflux ratio stood at 0.496; the intrinsic clearance, human liver microsomes came out at 18.6 mL/min/kg; the intrinsic clearance, rat liver microsomes was determined as 238 mL/min/kg; the aqueous solubility was 37.6 µg/mL (≈ 133 µM).
Consider `Cn1cc(NC(=O)[C@@H]2CCCCN2C(=O)OC(C)(C)C)cn1`, for which the MDR1-MDCK efflux ratio came to 4.1; the intrinsic clearance, human liver microsomes is at most 4.74 mL/min/kg; the intrinsic clearance, rat liver microsomes worked out at 28.2 mL/min/kg; the aqueous solubility stood at 67.2 µg/mL (≈ 218 µM).
As to `CCC(=O)Nc1cccc(C(=O)N2CCN(C)Cc3ccccc32)c1`, the MDR1-MDCK efflux ratio turned out to be 41.5 and the aqueous solubility worked out at 0.2 µg/mL (≈ 0.593 µM).
As to `CN1CCN(c2ccc3nc(-c4cc(C(C)(C)C)c(OCCCC(=O)NCCCN=[N+]=[N-])c(C(C)(C)C)c4)[nH]c3c2)CC1`, the intrinsic clearance, human liver microsomes worked out at 177 mL/min/kg and the intrinsic clearance, rat liver microsomes turned out to be 212 mL/min/kg.
With `COc1cc2c(cc1OC)CN(C(=O)C1CCCN(C(C)=O)C1)CC2` (configuration not stated), the MDR1-MDCK efflux ratio was 57.1; the intrinsic clearance, human liver microsomes is at most 4.74 mL/min/kg; the intrinsic clearance, rat liver microsomes came out at 19.9 mL/min/kg; the aqueous solubility is 55 µg/mL (≈ 159 µM).
